Reference: US20150355179A1, “CDKACT BIOSENSORS-FLUORESCENT POLYPEPTIDE TO PROBE THE ACTIVITY OF CDK/CYCLIN KINASES IN VITRO, IN CELLULO AND IN VIVO” (CENTRE NATIONAL DE LA RECHERCHE SCIENTIFIQUE (CNRS), priority 2012, published 2015)

Columns and labels:
[1] = tested on: CDK/Cyclin kinase activity in HeLa cell extracts; assay: Fluorescence kinase assay of CDKACTH1 in HeLa cell extracts; assay type: biochemical; conditions: 20 ug HeLa cell extracts, increasing concentrations of inhibitor
Experimental: (§1) Fluorescence kinase assays were performed in 96-well plates in a thermostated chamber (Polarstar BMG) at 30° C. in 200 ul phosphate buffer saline, pH 7.2, 150 mM NaCl, in the presence of 5 mM MgCl2, 0.5 mM ATP, except when stated otherwise. The fluorescence of Cy3-labelled CDKACTH1 with recombinant CDK/Cyclin complexes or with cell extracts was monitored over time. Changes in Cy3 fluorescence emission were recorded at 590 nm following excitation at 544 nm. In all experiments, the fluorescence of CDKACTH1-Cy3 alone was substracted from all other values. Data analysis and curve fitting were performed using the GraFit Software (Erathicus Ltd).
Cell culture media, serum and antibiotics were purchased from Invitrogen. HeLa, HS68, A549, MCF-7 and U2OS cells were cultured in DMEM+Glutamax supplemented with 10% FCS, 1 mM penicillin and 1 mM streptomycin at 37° C. in an atmosphere containing 5% CO2. HT2-19 cells, provided by Dr. A. Porter, were cultured in DMEM+NEAA, antibiotics, sodium pyruvate and glutamine, and supplemented with 10% FCS29. Cell extracts were prepared in TBS lysis buffer containing 50 mM TrisHCl, pH 7.4, 150 mM NaCl, 0.1% NP40, 0.1% Deoxycholate, 2 mM EDTA, 1 mM PMSF, Complete™ protease inhibitors (Roche), and normalized following spectrophometric dosage at 280 nm. Phosphatase inhibitors: 50 mM NaF, 40 mM β-Glycero-phosphate, 1 mM Na3VO4.
Kinase assays were performed in the same conditions as above. […] As shown in FIG. 4A-C, incubation of 20 ug HeLa cell extracts with CDKACTH1 yielded a very similar profile to that obtained with recombinant CDK/Cyclins, implying that these kinases were indeed phosphorylating the substrate sequence of the biosensor. […] Since phosphorylation events are counterbalanced by phosphatases in mammalian cell extracts, we asked whether the response measured would be further improved if phosphatase activity was blocked.

CDK2/Cyclin A = molecular target: T1, CDK2/Cyclin A (Homo sapiens, UniProt P24941); assay: Real-time fluorescence kinase assay with recombinant active CDK2/Cyclin A; assay type: biochemical
T1 construct: made in house; host or cells: E. coli
Experimental: (§2) In order to characterize CDKACT-H1 biosensor in vitro, we first asked whether it could be used to monitor recombinant kinase activity in a real-time assay.
as §1, §2
In vitro characterization was performed as described in Example 2. […] Assays were performed at 30° C. for 1600s. Fluorescence emission of Cy5 was measured at 675 nm following excitation at 645 nm on Polarstar™ fluorimeter.
Assays were performed at 30° C. for 1600s. Fluorescence emission of Cy3 was measured at 590 nm following excitation at 544 nm on Polarstar™ fluorimeter.

CDK4/Cyclin D = molecular target: T2, CDK4/Cyclin D (Homo sapiens, UniProt P11802); assay: Real-time fluorescence kinase assay with recombinant CDK4/Cyclin D; assay type: biochemical; conditions: 20 uM inhibitor; 75 nM CDK4/CyclinD, 25 nM CDKACTH1-Cy3
T2 construct: made in house; host or cells: E. coli
Experimental: as §1
To address the issue of specificity, we asked whether other kinases could phosphorylate and thereby affect the fluorescence of CDKACTH1. We first examined CDK1/Cyclin B and CDK4/Cyclin D (FIGS. 3A and B).

A375 rvluc2 cells = assay: A375 xenograft tumour growth in NMRI nude mice; assay type: in vivo; conditions: Roscovitine IP 50 mg/kg/day for 7 days

T2 sequence (P11802 whole entry, species assumed): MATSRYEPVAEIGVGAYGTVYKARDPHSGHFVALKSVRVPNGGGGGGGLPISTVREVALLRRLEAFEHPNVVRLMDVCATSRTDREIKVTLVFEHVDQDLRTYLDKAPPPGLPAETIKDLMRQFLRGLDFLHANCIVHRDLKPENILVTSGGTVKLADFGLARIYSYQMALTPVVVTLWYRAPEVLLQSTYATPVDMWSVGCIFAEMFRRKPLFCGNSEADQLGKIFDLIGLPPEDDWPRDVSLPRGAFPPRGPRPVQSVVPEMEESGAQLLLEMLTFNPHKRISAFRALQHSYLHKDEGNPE
T2 sequence (P24385 whole entry partner, species assumed): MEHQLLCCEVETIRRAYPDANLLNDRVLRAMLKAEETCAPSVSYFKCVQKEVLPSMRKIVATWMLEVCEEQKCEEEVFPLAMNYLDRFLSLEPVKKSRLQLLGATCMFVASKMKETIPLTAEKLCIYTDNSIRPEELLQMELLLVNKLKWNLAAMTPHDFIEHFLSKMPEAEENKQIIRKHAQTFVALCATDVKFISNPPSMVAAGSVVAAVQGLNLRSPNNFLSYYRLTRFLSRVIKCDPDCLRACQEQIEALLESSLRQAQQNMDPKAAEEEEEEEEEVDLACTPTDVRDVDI

CC(=O)c1c(C)c2cnc(Nc3ccc(N4CCNCC4)cn3)nc2n(C2CCCC2)c1=O [PD-0332991]
share of CDKACTH1 phosphorylating activity attributed to the kinases blocked by the inhibitor [1]: partial activity

O=C1NC(=NCc2cccs2)S/C1=C\c1ccc2ncccc2c1 [RO3306]
share of CDKACTH1 phosphorylating activity attributed to the kinases blocked by the inhibitor [1]: larger part of activities

CDKACTWWH1: peptide biosensor SEQ ID No 20: Pin1 WW phosphobinding domain, linker SEQ ID No 14, histone H1 substrate domain; synthesized, dye-labelled (KLPPGWEKRMSRSSGRVYYFNHITNASQWERPSGPGAGGTGGLPGGGGCSTPKKAKKL; Cy5 or Cy3 dye label; Polypeptide comprising: the WW domain of PIN1 wherein all Cystein residues are replaced by a Serine residue, a linker and the CDK substrate domain from histone H1)
fluorescence enhancement compared with CDKACTH1 (CDK2/Cyclin A; 25 nM Cy3-labelled sensors, 25 nM active CDK2/Cyclin A3): greater changes in fluorescence enhancement
fluorescence response to CDK2/CyclinA activity (CDK2/Cyclin A; 25 nM Cy5-CDKACT-WWH1, 25 nM active CDK2/Cyclin A3, 5 mM ATP, 20 mM MgCl2): significant changes in fluorescence enhancement

CC[C@H](CO)Nc1nc(NCc2ccccc2)c2ncn(C(C)C)c2n1 [roscovitine]
effect of inhibitor on the CDKACTH1 fluorescence signal (CDK4/Cyclin D): no effect
share of CDKACTH1 phosphorylating activity attributed to the kinases blocked by the inhibitor [1]: larger part of activities
size of tumours compared to vehicle (A375 rvluc2 cells; versus DMSO vehicle): 55.6%
size of tumours compared to control (A375 rvluc2 cells; versus non-treated control): 53.8%
